In PubChem BioAssay AID2060902 (Molecular Pharmacology Branch, DTP, NCI, 2025):

Test system: 485368-065-R3-J5-PDC spheroids with HUVEC/MSC, viability
Experiment: Anticancer human tumor 485368-065-R3-J5-PDC patient-derived pancreatic carcinoma cell line growth inhibition [RAS]
Conditions: for viability, T/C: stronger effect = lower value
Method in brief: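 Agents were tested in combination matrices in half-log decrements from a top concentration at or near clinical Cmax (10 microM if undetermined). Targets were multi-cell spheroids of tumour lines plus HUVEC and MSC stromal cells.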

[1] = curve of first compound, second compound 0.000949 µM
[2] = curve of first compound, second compound 0.003 µM
[3] = curve of first compound, second compound 0.00949 µM
[4] = curve of first compound, second compound 0.03 µM
[5] = curve of first compound, second compound 0.0949 µM
[6] = curve of first compound, second compound 0.3 µM
[7] = second compound 0.000949 µM, first compound 0.00316 µM
[8] = second compound 0.000949 µM, first compound 0.01 µM
[9] = second compound 0.000949 µM, first compound 0.0316 µM
[10] = second compound 0.000949 µM, first compound 0.1 µM
[11] = second compound 0.000949 µM, first compound 0.316 µM
[12] = second compound 0.000949 µM, first compound 1 µM
[13] = second compound 0.003 µM, first compound 0.00316 µM
[14] = second compound 0.003 µM, first compound 0.01 µM
[15] = second compound 0.003 µM, first compound 0.0316 µM
[16] = second compound 0.003 µM, first compound 0.1 µM
[17] = second compound 0.003 µM, first compound 0.316 µM
[18] = second compound 0.003 µM, first compound 1 µM
[19] = second compound 0.00949 µM, first compound 0.00316 µM
[20] = second compound 0.00949 µM, first compound 0.01 µM
[21] = second compound 0.00949 µM, first compound 0.0316 µM
[22] = second compound 0.00949 µM, first compound 0.1 µM
[23] = second compound 0.00949 µM, first compound 0.316 µM
[24] = second compound 0.00949 µM, first compound 1 µM
[25] = second compound 0.03 µM, first compound 0.00316 µM
[26] = second compound 0.03 µM, first compound 0.01 µM
[27] = second compound 0.03 µM, first compound 0.0316 µM
[28] = second compound 0.03 µM, first compound 0.1 µM
[29] = second compound 0.03 µM, first compound 0.316 µM
[30] = second compound 0.03 µM, first compound 1 µM
[31] = second compound 0.0949 µM, first compound 0.00316 µM
[32] = second compound 0.0949 µM, first compound 0.01 µM
[33] = second compound 0.0949 µM, first compound 0.0316 µM
[34] = second compound 0.0949 µM, first compound 0.1 µM
[35] = second compound 0.0949 µM, first compound 0.316 µM
[36] = second compound 0.0949 µM, first compound 1 µM
[37] = second compound 0.3 µM, first compound 0.00316 µM
[38] = second compound 0.3 µM, first compound 0.01 µM
[39] = second compound 0.3 µM, first compound 0.0316 µM
[40] = second compound 0.3 µM, first compound 0.1 µM
[41] = second compound 0.3 µM, first compound 0.316 µM
[42] = second compound 0.3 µM, first compound 1 µM
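Note: spheroids exposed to agents for seven days before readout.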

Nc1ccn(C2OC(CO)C(O)C2(F)F)c(=O)n1 (stereo not drawn) + CCn1c(-c2cc(N3CCN(C)CC3)cnc2C(C)OC)c2c3cc(ccc31)-c1csc(n1)CC(NC(=O)C1CC1C)C(=O)N1CCCC(N1)C(=O)OCC(C)(C)C2
IC50 [1]: < 3.16 nM
IC50 [2]: < 3.16 nM
IC50 [3]: < 3.16 nM
IC50 [4]: < 3.16 nM
IC50 [5]: < 3.16 nM
IC50 [6]: < 3.16 nM
viability, T/C [7]: 31%
viability, T/C [8]: 15.8%
viability, T/C [9]: 8.79%
viability, T/C [10]: 6.33%
viability, T/C [11]: 6.11%
viability, T/C [12]: 5.93%
viability, T/C [13]: 18.5%
viability, T/C [14]: 12.8%
viability, T/C [15]: 9.81%
viability, T/C [16]: 6.58%
viability, T/C [17]: 9.3%
viability, T/C [18]: 6.96%
viability, T/C [19]: 13.5%
viability, T/C [20]: 10.9%
viability, T/C [21]: 9.06%
viability, T/C [22]: 8.14%
viability, T/C [23]: 8.28%
viability, T/C [24]: 7.89%
viability, T/C [25]: 10.7%
viability, T/C [26]: 11%
viability, T/C [27]: 7.61%
viability, T/C [28]: 6.76%
viability, T/C [29]: 7.98%
viability, T/C [30]: 6.7%
viability, T/C [31]: 9.63%
viability, T/C [32]: 8.06%
viability, T/C [33]: 7.29%
viability, T/C [34]: 5.92%
viability, T/C [35]: 6.25%
viability, T/C [36]: 6.08%
viability, T/C [37]: 6.95%
viability, T/C [38]: 7.22%
viability, T/C [39]: 7.67%
viability, T/C [40]: 5.52%
viability, T/C [41]: 7.58%
viability, T/C [42]: 6.63%

CCn1c(-c2cc(N3CCN(C)CC3)cnc2C(C)OC)c2c3cc(ccc31)-c1csc(n1)CC(NC(=O)C1CC1C)C(=O)N1CCCC(N1)C(=O)OCC(C)(C)C2 (stereo not drawn)
viability, T/C (compound 0.000949 µM): 35.5% [middle of 8 runs]
viability, T/C (compound 0.003 µM): 22.9% [middle of 8 runs]
viability, T/C (compound 0.00949 µM): 17.3% [middle of 8 runs]
viability, T/C (compound 0.03 µM): 12.7% [middle of 8 runs]
viability, T/C (compound 0.0949 µM): 10.3% [middle of 7 runs]
viability, T/C (compound 0.3 µM): 8.88% [middle of 8 runs]
IC50 (compound alone, run of 07/09/2024): < 0.949 nM

C=CC(=O)Nc1cc(Nc2nccc(-c3cn(C)c4ccccc34)n2)c(OC)cc1N(C)CCN(C)C + CCn1c(-c2cc(N3CCN(C)CC3)cnc2C(C)OC)c2c3cc(ccc31)-c1csc(n1)CC(NC(=O)C1CC1C)C(=O)N1CCCC(N1)C(=O)OCC(C)(C)C2
IC50 [1]: < 3.16 nM
IC50 [2]: < 3.16 nM
IC50 [3]: < 3.16 nM
IC50 [4]: < 3.16 nM
IC50 [5]: < 3.16 nM
IC50 [6]: < 3.16 nM
viability, T/C [7]: 38.2%
viability, T/C [8]: 34.1%
viability, T/C [9]: 30.4%
viability, T/C [10]: 28.6%
viability, T/C [11]: 25.3%
viability, T/C [12]: 17.8%
viability, T/C [13]: 21.1%
viability, T/C [14]: 19.9%
viability, T/C [15]: 18.6%
viability, T/C [16]: 14.6%
viability, T/C [17]: 13.4%
viability, T/C [18]: 10.9%
viability, T/C [19]: 16.4%
viability, T/C [20]: 15.7%
viability, T/C [21]: 15.5%
viability, T/C [22]: 13.1%
viability, T/C [23]: 9.97%
viability, T/C [24]: 7.7%
viability, T/C [25]: 13%
viability, T/C [26]: 11.8%
viability, T/C [27]: 9.7%
viability, T/C [28]: 9.51%
viability, T/C [29]: 7.35%
viability, T/C [30]: 5.44%
viability, T/C [31]: 8.87%
viability, T/C [32]: 9.53%
viability, T/C [33]: 8.8%
viability, T/C [34]: 6.02%
viability, T/C [35]: 6.17%
viability, T/C [36]: 3.77%
viability, T/C [37]: 8.98%
viability, T/C [38]: 8.98%
viability, T/C [39]: 7.33%
viability, T/C [40]: 7.51%
viability, T/C [41]: 4.7%
viability, T/C [42]: 3.38%

CC(=O)OC12COC1CC(O)C1(C)C(=O)C(O)C3=C(C)C(OC(=O)C(O)C(NC(=O)OC(C)(C)C)c4ccccc4)CC(O)(C(OC(=O)c4ccccc4)C21)C3(C)C (stereo not drawn) + C=CC(=O)N1CCN(c2nc(OCC3CCCN3C)nc3c(F)c(-c4nc(N)cc(C)c4C(F)(F)F)c(Cl)cc23)C(C)C1
IC50 (curve of first compound, second compound 0.00316 µM): < 31.6 nM
IC50 (curve of first compound, second compound 0.01 µM): < 31.6 nM
IC50 (curve of first compound, second compound 0.0316 µM): < 31.6 nM
IC50 (curve of first compound, second compound 0.1 µM): < 31.6 nM
IC50 (curve of first compound, second compound 0.316 µM): < 31.6 nM
IC50 (curve of first compound, second compound 1 µM): < 31.6 nM
viability, T/C (second compound 0.00316 µM, first compound 0.0316 µM): 14.1%
viability, T/C (second compound 0.00316 µM, first compound 0.1 µM): 12.1%
viability, T/C (second compound 0.00316 µM, first compound 0.316 µM): 13.5%
viability, T/C (second compound 0.00316 µM, first compound 1 µM): 12.9%
viability, T/C (second compound 0.00316 µM, first compound 3.16 µM): 13.9%
viability, T/C (second compound 0.00316 µM, first compound 10 µM): 18.2%
viability, T/C (second compound 0.01 µM, first compound 0.0316 µM): 11.4%
viability, T/C (second compound 0.01 µM, first compound 0.1 µM): 10.3%
viability, T/C (second compound 0.01 µM, first compound 0.316 µM): 11.2%
viability, T/C (second compound 0.01 µM, first compound 1 µM): 11.9%
viability, T/C (second compound 0.01 µM, first compound 3.16 µM): 11.9%
viability, T/C (second compound 0.01 µM, first compound 10 µM): 21.3%
viability, T/C (second compound 0.0316 µM, first compound 0.0316 µM): 13.2%
viability, T/C (second compound 0.0316 µM, first compound 0.1 µM): 9.68%
viability, T/C (second compound 0.0316 µM, first compound 0.316 µM): 12.2%
viability, T/C (second compound 0.0316 µM, first compound 1 µM): 16%
viability, T/C (second compound 0.0316 µM, first compound 3.16 µM): 16.2%
viability, T/C (second compound 0.0316 µM, first compound 10 µM): 19.9%
viability, T/C (second compound 0.1 µM, first compound 0.0316 µM): 10.6%
viability, T/C (second compound 0.1 µM, first compound 0.1 µM): 10.8%
viability, T/C (second compound 0.1 µM, first compound 0.316 µM): 13.7%
viability, T/C (second compound 0.1 µM, first compound 1 µM): 10%
viability, T/C (second compound 0.1 µM, first compound 3.16 µM): 17.6%
viability, T/C (second compound 0.1 µM, first compound 10 µM): 20.2%
viability, T/C (second compound 0.316 µM, first compound 0.0316 µM): 9.72%
viability, T/C (second compound 0.316 µM, first compound 0.1 µM): 13.7%
viability, T/C (second compound 0.316 µM, first compound 0.316 µM): 11.7%
viability, T/C (second compound 0.316 µM, first compound 1 µM): 13%
viability, T/C (second compound 0.316 µM, first compound 3.16 µM): 22.9%
viability, T/C (second compound 0.316 µM, first compound 10 µM): 28.2%
viability, T/C (second compound 1 µM, first compound 0.0316 µM): 12.8%
viability, T/C (second compound 1 µM, first compound 0.1 µM): 15.1%
viability, T/C (second compound 1 µM, first compound 0.316 µM): 16.3%
viability, T/C (second compound 1 µM, first compound 1 µM): 12.6%
viability, T/C (second compound 1 µM, first compound 3.16 µM): 17.3%
viability, T/C (second compound 1 µM, first compound 10 µM): 23.5%
